Our source for the IC50 values is US9890147B2 (BAYER PHARMA AKTIENGESELLSCHAFT, priority 2012, dated 2018).

One assay has as its target T1, BRD4 (BD1) (Homo sapiens, UniProt O60885).
T1 construct: with relatively long constructs also being possible, preferably amino acids 44-168; made in house; host or cells: E. coli
In words: Binding assay BRD4/acetylated peptide H4 (TR-FRET protein-protein interaction assay). In outline:
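His6-BRD4 BD1 (aa 67-152, E. coli), usually 10 nM, with biotinylated tetra-acetylated H4 peptide in HEPES pH 7.5 buffer; 11 compound concentrations 0.1 nM–20 μM in duplicate, 10 min preincubation, 1 h at 22 °C then ≥3 h at 4 °C. TR-FRET 665/620 ratio; IC50 by 4-parameter fit.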

Another assay has as its system MOLM-13 cells. As to the kind of experiment: Cell proliferation assay (alamarBlue), MOLM-13. To be noted: Homo sapiens, 96 hours incubation, inhibition of cell proliferation. It counts as cell-based. In outline:
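Cells in RPMI1640/10% FCS read by alamarBlue fluorescence (ex 530, em 590 nm) after overnight 37 °C incubation, then treated at 1E-5 to 1E-8 M for 96 h. Pre-treatment values subtracted from endpoint values and compared with buffer-only wells; IC50 is 50% proliferation inhibition.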
(In general: Alamar Blue is a resazurin reagent that responds to reducing activity.)

One may read the IC50 as the concentration needed to halve the response being measured. For `CNC(=O)N1N=C(c2ccc(N3CCN(C)C(=O)C3)cc2)c2cc(OC)c(OC)cc2C[C@@H]1C` [Example 138.1, (4S)-7,8-dimethoxy-N,4-dimethyl-1-[4-(4-methyl-3-oxopiperazin-1-yl)phenyl]-4,5-dihydro-3H-2,3-benzodiazepine-3-carboxamide], the IC50 stood at 40 nM at BRD4 (BD1) and 180 nM with MOLM-13 cells.

In the case of `CNC(=O)N1N=C(c2ccc(-n3ccc(-c4ccc(F)cc4)n3)cc2)c2cc(OC)c(OC)cc2C[C@H]1C` [Example 150.2, (4R)-1-{4-[3-(4-fluorophenyl)-1H-pyrazol-1-yl]phenyl}-7,8-dimethoxy-N,4-dimethyl-4,5-dihydro-3H-2,3-benzodiazepine-3-carboxamide], the IC50 at BRD4 (BD1) was found to be 12300 nM; in the assay on MOLM-13 cells, 9870 nM.

As to `CNC(=O)N1N=C(c2ccc(-c3c(C)noc3C)cc2)c2cc(OC(F)(F)F)c(Cl)cc2C[C@@H]1C` [Example 156.1, (4S)-7-Chloro-1-[4-(3,5-dimethylisoxazol-4-yl)phenyl]-N,4-dimethyl-8-(trifluoromethoxy)-4,5-dihydro-3H-2,3-benzodiazepine-3-carboxamide], the IC50 on BRD4 (BD1) was determined as 330 nM; in the assay on MOLM-13 cells, 560 nM.

As for `CNC(=O)N1N=C(c2ccc(-c3c(C)noc3C)cc2)c2cc(OC(F)(F)F)c(Cl)cc2C[C@H]1C` [Example 156.2, (4R)-7-Chloro-1-[4-(3,5-dimethylisoxazol-4-yl)phenyl]-N,4-dimethyl-8-(trifluoromethoxy)-4,5-dihydro-3H-2,3-benzodiazepine-3-carboxamide], the figures for the IC50 at BRD4 (BD1) and with MOLM-13 cells were 2240 nM and greater than 10000 nM, respectively.

Regarding `CNC(=O)N1N=C(c2ccc(-c3c(C)noc3C)cc2)c2cc(Cl)c(OC)cc2C[C@@H]1C` [Example 157.1, (4S)-8-chloro-1-[4-(3,5-dimethylisoxazol-4-yl)phenyl]-7-methoxy-N,4-dimethyl-4,5-dihydro-3H-2,3-benzodiazepine-3-carboxamide], the IC50 at BRD4 (BD1) was determined as 130 nM; in the assay on MOLM-13 cells it was 120 nM.

As for `CNC(=O)N1N=C(c2ccc(-c3c(C)noc3C)cc2)c2cc(Cl)c(OC)cc2C[C@H]1C` [Example 157.2, (4R)-8-chloro-1-[4-(3,5-dimethylisoxazol-4-yl)phenyl]-7-methoxy-N,4-dimethyl-4,5-dihydro-3H-2,3-benzodiazepine-3-carboxamide], the IC50 was found to be 470 nM on BRD4 (BD1) and 2190 nM in the assay on MOLM-13 cells.

As for `CNC(=O)N1N=C(c2ccc(-c3c(C)noc3C)cc2)c2cc(OC)c(OC(F)F)cc2C[C@@H]1C` [Example 162.1, (4S)-7-(difluoromethoxy)-1-[4-(3,5-dimethylisoxazol-4-yl)phenyl]-8-methoxy-N,4-dimethyl-4,5-dihydro-3H-2,3-benzodiazepine-3-carboxamide], the IC50 on BRD4 (BD1) came out at 100 nM; in the assay on MOLM-13 cells, 210 nM.

For `CNC(=O)N1N=C(c2ccc(-c3c(C)noc3C)cc2)c2cc(OC)c(OC(F)F)cc2C[C@H]1C` [Example 162.2, (4R)-7-(difluoromethoxy)-1-[4-(3,5-dimethylisoxazol-4-yl)phenyl]-8-methoxy-N,4-dimethyl-4,5-dihydro-3H-2,3-benzodiazepine-3-carboxamide], the IC50 turned out to be 560 nM at BRD4 (BD1) and 1680 nM with MOLM-13 cells.

For `CNC(=O)N1N=C(c2ccc(N3CCN(C)CC3)cc2)c2cc(OC)c(OC(F)F)cc2C[C@H]1C` [Example 163.1, (4R)-7-(difluoromethoxy)-8-methoxy-N,4-dimethyl-1-[4-(4-methylpiperazin-1-yl)phenyl]-4,5-dihydro-3H-2,3-benzodiazepine-3-carboxamide], the IC50 at BRD4 (BD1) was 8940 nM; in the assay on MOLM-13 cells, 7080 nM.

As for `CNC(=O)N1N=C(c2ccc(N3CCN(C)CC3)cc2)c2cc(OC)c(OC(F)F)cc2C[C@@H]1C` [Example 163.2, (4S)-7-(difluoromethoxy)-8-methoxy-N,4-dimethyl-1-[4-(4-methylpiperazin-1-yl)phenyl]-4,5-dihydro-3H-2,3-benzodiazepine-3-carboxamide], the IC50 turned out to be 30 nM at BRD4 (BD1) and 260 nM in the assay on MOLM-13 cells.

As for `CNC(=O)N1N=C(c2ccc(Cl)cc2)c2cc(OCCCN3CCN(C)CC3)ccc2C[C@@H]1C` [Example 164.2, (4S)-1-(4-chlorophenyl)-N,4-dimethyl-8-[3-(4-methylpiperazin-1-yl)propoxy]-4,5-dihydro-3H-2,3-benzodiazepine-3-carboxamide], the IC50 at BRD4 (BD1) was 60 nM; in the assay with MOLM-13 cells, 420 nM.

Take `CNC(=O)N1N=C(c2ccc(-c3c(C)noc3C)cc2)c2cc(N3CCOCC3)ccc2C[C@H]1C` [Example 176.1, (4R)-1-[4-(3,5-Dimethylisoxazol-4-yl)phenyl]-N,4-dimethyl-8-(morpholin-4-yl)-4,5-dihydro-3H-2,3-benzodiazepine-3-carboxamide]: the values for the IC50 at BRD4 (BD1) and in the assay with MOLM-13 cells were 730 nM and 2190 nM, respectively.

Turning to `CNC(=O)N1N=C(c2ccc(-c3c(C)noc3C)cc2)c2cc(N3CCOCC3)ccc2C[C@@H]1C` [Example 176.2, (4S)-1-[4-(3,5-Dimethylisoxazol-4-yl)phenyl]-N,4-dimethyl-8-(morpholin-4-yl)-4,5-dihydro-3H-2,3-benzodiazepine-3-carboxamide], the IC50 at BRD4 (BD1) worked out at 40 nM; with MOLM-13 cells it was 250 nM.

Take `CNC(=O)N1N=C(c2ccc(N3CCOCC3=O)cc2)c2cc(OC)ccc2C[C@@H]1C` [Example 177, (4S)-8-Methoxy-N,4-dimethyl-1-[4-(3-oxomorpholin-4-yl)phenyl]-4,5-dihydro-3H-2,3-benzodiazepine-3-carboxamide]: the IC50 on BRD4 (BD1) came out at 70 nM; with MOLM-13 cells, 490 nM.

As to `CNC(=O)N1N=C(c2ccc(N3CCC(OC)CC3)cc2)c2cc(OC)c(OC)cc2C[C@@H]1C` [Example 179.2, (4S)-7,8-dimethoxy-1-[4-(4-methoxypiperidin-1-yl)phenyl]-N,4-dimethyl-4,5-dihydro-3H-2,3-benzodiazepine-3-carboxamide], the IC50 came to 40 nM on BRD4 (BD1) and 80 nM with MOLM-13 cells.

Turning to `CNC(=O)N1N=C(c2ccc(N3CCC(N(C)C)CC3)cc2)c2cc(OC)c(OC)cc2C[C@H]1C` [Example 180.1, (4R)-1-{4-[4-(dimethylamino)piperidin-1-yl]phenyl}-7,8-dimethoxy-N,4-dimethyl-4,5-dihydro-3H-2,3-benzodiazepine-3-carboxamide], the IC50 was found to be 390 nM at BRD4 (BD1) and 2700 nM with MOLM-13 cells.

As to `CNC(=O)N1N=C(c2ccc(N3CCC(N(C)C)CC3)cc2)c2cc(OC)c(OC)cc2C[C@@H]1C` [Example 180.2, (4S)-1-{4-[4-(dimethylamino)piperidin-1-yl]phenyl}-7,8-dimethoxy-N,4-dimethyl-4,5-dihydro-3H-2,3-benzodiazepine-3-carboxamide], the IC50 at BRD4 (BD1) stood at 60 nM; in the assay with MOLM-13 cells, 50 nM.

Take `CNC(=O)N1N=C(c2ccc(N3CC(C)(O)C3)cc2)c2cc(OC)c(OC)cc2C[C@@H]1C` [Example 185.2, (4S)-1-[4-(3-hydroxy-3-methylazetidin-1-yl)phenyl]-7,8-dimethoxy-N,4-dimethyl-4,5-dihydro-3H-2,3-benzodiazepine-3-carboxamide]: the IC50 on BRD4 (BD1) is 30 nM; in the assay on MOLM-13 cells it was 100 nM.

`CNC(=O)N1N=C(c2ccc(N3CCC(C)(O)CC3)cc2)c2cc(OC)c(OC)cc2C[C@H]1C` [Example 188.1, (4R)-1-[4-(4-hydroxy-4-methylpiperidin-1-yl)phenyl]-7,8-dimethoxy-N,4-dimethyl-4,5-dihydro-3H-2,3-benzodiazepine-3-carboxamide]: the figures for the IC50 at BRD4 (BD1) and with MOLM-13 cells were 270 nM and 1130 nM, respectively.

For `CNC(=O)N1N=C(c2ccc(N3CCC(C)(O)CC3)cc2)c2cc(OC)c(OC)cc2C[C@@H]1C` [Example 188.2, (4S)-1-[4-(4-hydroxy-4-methylpiperidin-1-yl)phenyl]-7,8-dimethoxy-N,4-dimethyl-4,5-dihydro-3H-2,3-benzodiazepine-3-carboxamide], the results for the IC50 at BRD4 (BD1) and in the assay with MOLM-13 cells were 30 nM and 70 nM, respectively.

Regarding `CC[C@H]1Cc2cc(OC)c(OC)cc2C(c2ccc(N3CCN(C)CC3)cc2)=NN1C(=O)NC` [Example 201.1, (4S)-4-ethyl-7,8-dimethoxy-N-methyl-1-[4-(4-methylpiperazin-1-yl)phenyl]-4,5-dihydro-3H-2,3-benzodiazepine-3-carboxamide], the IC50 at BRD4 (BD1) was 710 nM; in the assay with MOLM-13 cells, 1990 nM.

Take `CC[C@H]1Cc2cc(OC)c(OC)cc2C(c2ccc(N3CCNCC3)cc2)=NN1C(=O)NC` [Example 202.1, (4S)-4-ethyl-7,8-dimethoxy-N-methyl-1-[4-(piperazin-1-yl)phenyl]-4,5-dihydro-3H-2,3-benzodiazepine-3-carboxamide]: the IC50 on BRD4 (BD1) turned out to be 640 nM; in the assay with MOLM-13 cells it was 580 nM.

Turning to `CC[C@H]1Cc2cc(OC)c(OC)cc2C(c2ccc(N3CCN(S(C)(=O)=O)CC3)cc2)=NN1C(=O)NC` [Example 203.1, (4S)-4-ethyl-7,8-dimethoxy-N-methyl-1-{4-[4-(methylsulphonyl)piperazin-1-yl]phenyl}-4,5-dihydro-3H-2,3-benzodiazepine-3-carboxamide], the results for the IC50 on BRD4 (BD1) and in the assay on MOLM-13 cells were 260 nM and 1270 nM, respectively.

For the compound `CC[C@H]1Cc2cc(OC)c(OC)cc2C(c2ccc(N3CCOCC3)cc2)=NN1C(=O)NC` [Example 209, (4S)-4-ethyl-7,8-dimethoxy-N-methyl-1-[4-(morpholin-4-yl)phenyl]-4,5-dihydro-3H-2,3-benzodiazepine-3-carboxamide], the IC50 at BRD4 (BD1) was 370 nM; in the assay with MOLM-13 cells it was 190 nM.

Turning to `CNC(=O)N1N=C(c2ccc(N3CCCN(C)CC3=O)cc2)c2cc(OC)c(OC)cc2C[C@@H]1C` [Example 229, (4S)-7,8-dimethoxy-N,4-dimethyl-1-[4-(4-methyl-2-oxo-1,4-diazepan-1-yl)phenyl]-4,5-dihydro-3H-2,3-benzodiazepine-3-carboxamide], the IC50 on BRD4 (BD1) is 70 nM; with MOLM-13 cells it was 140 nM.
